Laboratory results reported in patent US20100035932A1, “NOVEL FORMYL PEPTIDE RECEPTOR LIKE 1 AGONISTS THAT INDUCE MACROPHAGE TUMOR NECROSIS FACTOR ALPHA AND COMPUTATIONAL STRUCTURE-ACTIVITY RELATIONSHIP ANALYSIS OF THEREOF” (priority 2008, published 2010).
Where two headings read alike, the source gives them in different places.

System: J774.A1 macrophages
Test: TNF-α production in J774.A1 macrophages (ELISA)
Type: cell-based, murine
Conditions: for Determined class of macrophage TNF-α inducing activity: experimentally determined class; for fold induction at 50 µM: Mus musculus, J774.A1, 24 h
[1] = relative fold of activation compared to vehicle (DMSO) control for 50 μM compound, N.A. = no activity was observed, read-out: TNF-α production
[2] = 50 μM compound, above response to vehicle (DMSO) control, Table 5 numbering, N.A. = inactive, read-out: FI (fold-increase of macrophage TNF-α production)

Molecule	Determined class of macrophage TNF-α inducing activity	further results
COc1ccc(/C(C)=N/NC(=O)c2ccc3c(c2)OCCO3)cc1[N+](=O)[O-] [Compound 78]	NA (inactive derivatives were placed in the nonactive group labeled “NA”)	
O=C(N/N=C/c1cc(/N=N\c2cccc(C(F)(F)F)c2)ccc1O)c1ccc2c(c1)OCO2 [Compound 63]	NA (inactive derivatives were placed in the nonactive group labeled “NA”)	
O=C(N/N=C/c1cc(Br)cc(Br)c1OC(=O)c1ccccc1)c1ccc2c(c1)OCO2 [Compound 12]		fold induction at 50 µM [1]: < 5
O=C(N/N=C/c1ccc(-c2cccc(Br)c2)o1)c1ccccn1 [Compound 86]	NA (inactive derivatives were placed in the nonactive group labeled “NA”)	
CSCC[C@H](NC=O)C(=O)N[C@@H](CC(C)C)C(=O)N[C@@H](Cc1ccccc1)C(=O)O [fMLF, N-formyl-Met-Leu-Phe, reference compound]		TNF-α production by peptide agonists (50 μM, 24 hr): failed to induce macrophage TNF-α production
COc1ccc(Cl)cc1/C=N/NC(=O)c1ccc2c(c1)OCCO2 [Compound 79]	NA (inactive derivatives were placed in the nonactive group labeled “NA”)	
CCOc1cc(/C=N\NC(=O)c2ccc3c(c2)OCO3)ccc1OC(=O)c1ccc(Br)cc1 [Compound 11]		fold induction at 50 µM [1]: < 5
O=C(N/N=C/c1ccc(-c2cccc(C(F)(F)F)c2)o1)c1ccc(Br)cc1 [Compound 52]	Active	fold induction at 50 µM [2]: 35
O=C(N/N=C/c1ccc(-c2cccc(C(F)(F)F)c2)o1)c1cccc([N+](=O)[O-])c1 [Compound 13]		fold induction at 50 µM [1]: < 5
O=C(N/N=C/c1cc(Br)c(Br)o1)c1ccc2c(c1)OCCO2 [Compound 65]	NA (inactive derivatives were placed in the nonactive group labeled “NA”)	
COc1ccc(-c2ccc(/C=N/NC(=O)c3ccc([N+](=O)[O-])cc3)o2)cc1Cl [Compound 57]	Active	fold induction at 50 µM [2]: < 5
CCc1ccc(C(=O)N/N=C/c2ccc(-c3ccc(C)c(Cl)c3)o2)nc1 [Compound 85]	NA (inactive derivatives were placed in the nonactive group labeled “NA”)	
CC(C)N1C(=O)/C(=N\NC(=O)c2ccc3c(c2)OCO3)c2ccccc21 [Compound 76]	NA (inactive derivatives were placed in the nonactive group labeled “NA”)	
CCOc1cc(/C=N\NC(=O)c2ccc3c(c2)OCO3)ccc1OC(=O)c1ccc(Br)cc1 [Compound 56]	Active	fold induction at 50 µM [2]: < 5
CN(C)c1ccc(/C=N/NC(=O)c2ccc3c(c2)OCO3)cc1 [Compound 67]	NA (inactive derivatives were placed in the nonactive group labeled “NA”)	
4-fluoro-benzoic acid [5-(3-trifluoromethyl-phenyl)-2-furyl]methylene-hydrazide [Compound 2]	Active	FI (fold-increase of macrophage TNF-α production) (50 μM compound, above response to vehicle (DMSO) control, Table 5 numbering, N.A. = inactive): 60 fold-increase
O=C(N/N=C/c1ccc(-c2ccc(Cl)c(Cl)c2)o1)c1ccc2c(c1)OCO2 [Compound 55]	Active	fold induction at 50 µM [2]: < 5
CN(C)c1ccc(/C=N\NC(=O)c2cccc(F)c2)cc1 [Compound 66]	NA (inactive derivatives were placed in the nonactive group labeled “NA”)	
O=C(N/N=C/c1cc(Br)c(Br)o1)c1ccc2c(c1)OCO2 [Compound 16]		fold induction at 50 µM [1]: < 5

Molecule	Determined class of macrophage TNF-α inducing activity	further results
Cc1ccc(-c2ccc(/C=N/NC(=O)c3ccncc3)o2)cc1Cl [Compound 51]	Active	fold induction at 50 µM [2]: 50
CCOc1ncccc1C(=O)N/N=C/c1ccc([N+](=O)[O-])o1 [Compound 80]	NA (inactive derivatives were placed in the nonactive group labeled “NA”)	
O=C(N/N=C/c1ccc(-c2ccccc2Cl)o1)c1ccc(Cl)cc1Cl [Compound 14]		fold induction at 50 µM [1]: < 5
O=C(N/N=C/c1ccc(-c2cccc(C(F)(F)F)c2)o1)c1cc(I)ccc1Cl [Compound 15]		fold induction at 50 µM [1]: < 5
O=C(N/N=C/c1ccc(-c2ccc(Cl)cc2)o1)c1ccncc1 [Compound 83]	NA (inactive derivatives were placed in the nonactive group labeled “NA”)	
O=C(N/N=C/c1ccc([N+](=O)[O-])o1)c1cccc([N+](=O)[O-])c1 [Compound 23]		fold induction at 50 µM (read-out: TNF-α production): < 2
CN(C)c1ccc(/C=N\NC(=O)c2ccccc2O)cc1 [Compound 73]	NA (inactive derivatives were placed in the nonactive group labeled “NA”)	
COc1cc(/C=N\NC(=O)c2ccc3c(c2)OCO3)ccc1OC(=O)c1ccco1 [Compound 70]	NA (inactive derivatives were placed in the nonactive group labeled “NA”)	
O=C(N/N=C/c1cc(Br)c(Br)o1)c1ccc2c(c1)OCO2 [Compound 58]	Active	fold induction at 50 µM [2]: < 5
O=C(N/N=C/c1cc(Br)cc(I)c1O)c1ccc2c(c1)OCCO2 [Compound 62]	NA (inactive derivatives were placed in the nonactive group labeled “NA”)	
CN(C)c1ccc(/C=N\NC(=O)c2ccc([N+](=O)[O-])cc2)cc1 [Compound 53]	Active	fold induction at 50 µM [2]: 25
O=C(N/N=C/c1ccc(-c2ccc(Cl)c([N+](=O)[O-])c2)o1)c1ccc2c(c1)OCO2 [Compound 82]	NA (inactive derivatives were placed in the nonactive group labeled “NA”)	
O=C(N/N=C/c1cc(/N=N\c2cccc3ccccc23)ccc1O)c1ccc2c(c1)OCO2 [Compound 74]	NA (inactive derivatives were placed in the nonactive group labeled “NA”)	
CCN1C(=O)/C(=N\NC(=O)c2ccc3c(c2)OCO3)c2ccccc21 [Compound 77]	NA (inactive derivatives were placed in the nonactive group labeled “NA”)	
O=C(N/N=C/c1ccco1)c1cccnc1 [Compound 81]	NA (inactive derivatives were placed in the nonactive group labeled “NA”)	
C/C(=N\NC(=O)c1ccc2c(c1)OCO2)c1cccc([N+](=O)[O-])c1 [Compound 75]	NA (inactive derivatives were placed in the nonactive group labeled “NA”)	
O=C(/C=C\c1ccco1)Oc1ccc(/C=N\NC(=O)c2ccc3c(c2)OCO3)cc1 [Compound 71]	NA (inactive derivatives were placed in the nonactive group labeled “NA”)	
COc1ccc(C(=O)N/N=C\c2ccc(N(C)C)cc2)cc1 [Compound 61]	NA (inactive derivatives were placed in the nonactive group labeled “NA”)	
